Some test systems named below: A498 renal; HCT-15 colon; K-562 leukemia; KM12 colon; LXFL 529 NSCLC; OVCAR-4 ovarian; OVCAR-8 ovarian; DMS 273 small cell lung; DU-145 prostate; NCI/ADR-RES ovarian; PC-3 prostate.
Holding throughout (assay): NCI tumour cell line growth inhibition, 48 h

Where “and” joins values, the source holds several entries; their conditions need not be identical. Identical values can stand only once.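 Each compound was tested at five concentrations against cells in 96-well plates for 48 hours. GI50 = concentration required for 50% inhibition of growth. Definition used: TGI = concentration required for complete inhibition of growth.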

For the compound `CCOC(=O)/C(=C/c1ccco1)P(=O)(OCC)OCC`, the TGI in the assay with A498 renal, in the assay on HCT-15 colon, in the assay with K-562 leukemia, with KM12 colon, in the assay with LXFL 529 NSCLC and with OVCAR-4 ovarian was above 100 µM throughout. In addition, in the assay with OVCAR-8 ovarian, the TGI was above 100 µM.

For the compound `NC(=O)NC(=NCc1ccccc1)NCc1ccccc1`, the TGI in the assay with DMS 273 small cell lung, in the assay with HCT-15 colon, in the assay with KM12 colon, in the assay on LXFL 529 NSCLC, with OVCAR-4 ovarian and in the assay with OVCAR-8 ovarian was above 100 µM in each case.

For the compound `COCC(=O)OC1CCn2c1nc1c2C(=O)C(C)=C(NC(C)=O)C1=O` (stereo not given), the TGI in the assay on A498 renal came to 49.2 µM; in the assay with DMS 273 small cell lung it was 33.6 µM; in the assay with DU-145 prostate, 22.2 µM; in the assay with HCT-15 colon, 30.1 µM; in the assay on K-562 leukemia it was 11.9 µM; in the assay with KM12 colon, 30.5 µM. In addition, the TGI in the assay on LXFL 529 NSCLC was 11.5 µM; in the assay on NCI/ADR-RES ovarian it was 22.3 µM; in the assay on OVCAR-4 ovarian, 2.79 µM and 4.25 µM; in the assay on OVCAR-8 ovarian, 12 µM; with PC-3 prostate, 7.68 µM. The GI50 in the assay with K-562 leukemia is 3.23 µM; with NCI/ADR-RES ovarian, 6.89 µM; in the assay on OVCAR-4 ovarian, 1.43 µM; in the assay with OVCAR-8 ovarian, 2.92 µM; in the assay with PC-3 prostate, 3.56 µM.

Take `O=C(c1ccccc1)[C@H]1Nc2cnccc2C2c3ccccc3CC21` (stereo not given in full): the TGI was 75.4 µM in the assay with A498 renal; above 63.9 µM with DMS 273 small cell lung; 26.9 µM in the assay with HCT-15 colon; 15.6 µM in the assay with K-562 leukemia; above 61.3 µM with KM12 colon; 19.7 µM with LXFL 529 NSCLC. Also, the TGI is above 76.9 µM with OVCAR-4 ovarian and 33.9 µM in the assay with OVCAR-8 ovarian.

As to `COC(=O)C(=O)C(C(=O)C(=O)Nc1cc([N+](=O)[O-])ccc1C#N)c1nc2ccccc2[nH]c1=O` (stereo not given), the TGI in the assay on DMS 273 small cell lung, in the assay on HCT-15 colon, with KM12 colon, in the assay with LXFL 529 NSCLC, in the assay with OVCAR-4 ovarian and in the assay with OVCAR-8 ovarian was above 100 µM each time.

In the case of `C=C1CC2C(=O)N(c3ccccc3)C(=O)C2CC1n1[nH]c(=O)n(Cc2ccccc2)c1=O` (stereo not given), the TGI with A498 renal, in the assay with DMS 273 small cell lung, in the assay on HCT-15 colon, in the assay on K-562 leukemia, in the assay with KM12 colon and with LXFL 529 NSCLC was above 100 µM each time. In addition, the TGI in the assay with OVCAR-4 ovarian and in the assay with OVCAR-8 ovarian was above 100 µM throughout.

With `CCOC(=O)C(NC(=O)c1ccc(N=NN(C)C)cc1)C(C)C` (stereo not given), the TGI in the assay on A498 renal, with DMS 273 small cell lung, with HCT-15 colon, in the assay on K-562 leukemia, in the assay on KM12 colon and in the assay on LXFL 529 NSCLC was above 100 µM in each case. Moreover, the TGI in the assay on OVCAR-4 ovarian and with OVCAR-8 ovarian was above 100 µM in each case.

`NC(CCSCC(F)F)C(=O)O` (stereo not given): the TGI with A498 renal, with DMS 273 small cell lung, with HCT-15 colon, with K-562 leukemia, in the assay on KM12 colon and in the assay on LXFL 529 NSCLC was above 100 µM in each case. Moreover, the TGI in the assay with OVCAR-4 ovarian and with OVCAR-8 ovarian was above 100 µM each time.

As to `CC1(C)OC(=O)C=C([O-])O1.CC1(C)OC(=O)C=C([O-])O1.O=c1c(O)c(-c2ccc([O-])cc2[O-])oc2cc(O)cc(O)c12.[Ti+4]`, the GI50 was 58.1 µM with A498 renal, 32.2 µM in the assay with DMS 273 small cell lung and above 100 µM in the assay on LXFL 529 NSCLC. Besides, the TGI in the assay with A498 renal, in the assay on DMS 273 small cell lung, with HCT-15 colon, with K-562 leukemia, in the assay with KM12 colon and with LXFL 529 NSCLC was above 100 µM in each case. For the same compound, the TGI in the assay with OVCAR-4 ovarian and in the assay on OVCAR-8 ovarian was above 100 µM each time.

As to `O=c1cc(-c2ccccc2F)[nH]c2cc3c(cc12)OCO3`, the TGI with A498 renal is 2.13 µM; with DMS 273 small cell lung, above 100 µM; in the assay with DU-145 prostate, 0.48 µM; in the assay with HCT-15 colon, 4.22 µM; in the assay with K-562 leukemia, above 15.7 µM; in the assay with KM12 colon, 17.1 µM. Further, the TGI in the assay with LXFL 529 NSCLC was 16.5 µM; with NCI/ADR-RES ovarian, 0.246 µM; in the assay with OVCAR-4 ovarian, above 100 µM; with PC-3 prostate it was above 100 µM.

With `Cc1cc(C)nc(NS(=O)(=O)c2ccc(Nc3c4ccccc4nc4c(C(=O)N5CCN(CCOS(C)(=O)=O)CC5)ccc(Cl)c34)cc2)n1`, the TGI with A498 renal, in the assay with DMS 273 small cell lung, with HCT-15 colon, with K-562 leukemia, in the assay with KM12 colon and in the assay on OVCAR-4 ovarian was above 100 µM in each case. The same compound yielded a TGI in the assay with OVCAR-8 ovarian above 100 µM.

In the case of `N#CC(C#N)=Cc1cccc(Oc2ccccc2)c1`, the TGI in the assay with A498 renal was above 100 µM; with DMS 273 small cell lung, 36.1 µM; with HCT-15 colon, above 100 µM; with K-562 leukemia it was above 95.4 µM; with KM12 colon, 53.2 µM; in the assay with LXFL 529 NSCLC it was 41 µM. This compound also returned a TGI in the assay with OVCAR-8 ovarian above 31.6 µM.

`O=C(/C=C1\C[C@H]2C=Nc3ccccc3C(=O)N2C1)NCCCCCNC(=O)/C=C1\C[C@H]2C=Nc3ccccc3C(=O)N2C1`: the TGI in the assay with A498 renal is 33.5 µM; with DU-145 prostate, 27.4 µM; in the assay on HCT-15 colon, 10.6 µM; in the assay on K-562 leukemia, above 51.9 µM; with KM12 colon it was 41 µM; in the assay on NCI/ADR-RES ovarian, 55.9 µM. Further, the values for the TGI with OVCAR-4 ovarian, in the assay on OVCAR-8 ovarian and in the assay on PC-3 prostate were 26.4 µM, 7.31 µM and 27.1 µM, respectively.

Consider `COC(=O)/C(=N\NC(=S)NN)C(C(=O)C(=O)Nc1ccccc1C(N)=O)c1nc2ccccc2[nH]c1=O` (stereo not given), for which the TGI in the assay with DMS 273 small cell lung, with HCT-15 colon, in the assay on K-562 leukemia, with KM12 colon, in the assay on LXFL 529 NSCLC and in the assay on OVCAR-4 ovarian was above 100 µM throughout. In the assay with OVCAR-8 ovarian, this compound came in with a TGI above 100 µM.

Consider `COc1ccc(N2C(=O)C3c4[nH]c5ccccc5c4C4C(C)CCCC4C3C2=O)cc1` (stereo not given), for which the TGI in the assay on A498 renal, with DU-145 prostate, in the assay with HCT-15 colon, with K-562 leukemia, in the assay with KM12 colon and in the assay on NCI/ADR-RES ovarian was above 100 µM throughout. In addition, the TGI in the assay with OVCAR-4 ovarian, with OVCAR-8 ovarian and with PC-3 prostate was above 100 µM each time.

On to `COn1cc(CO)c2ccccc21`, for which the TGI was 3.67 µM in the assay with A498 renal; above 100 µM in the assay on DU-145 prostate; above 100 µM in the assay with HCT-15 colon; above 100 µM in the assay on K-562 leukemia; above 100 µM in the assay on KM12 colon; above 100 µM with NCI/ADR-RES ovarian. Also, the TGI with OVCAR-4 ovarian, in the assay with OVCAR-8 ovarian and with PC-3 prostate was above 100 µM throughout.

For the compound `CCOP(=O)(OCC)c1cc(-c2ccccc2)ccc1N`, the TGI in the assay on A498 renal, in the assay on DU-145 prostate, with HCT-15 colon, in the assay with K-562 leukemia, in the assay with KM12 colon and in the assay with NCI/ADR-RES ovarian was above 100 µM in each case. The TGI with OVCAR-4 ovarian, with OVCAR-8 ovarian and in the assay with PC-3 prostate was above 100 µM in each case.

Turning to `OC(c1ccco1)C(F)(F)c1nc2ccccc2o1` (stereo not given), the TGI with A498 renal, in the assay on DU-145 prostate, in the assay on HCT-15 colon, in the assay with K-562 leukemia, in the assay with KM12 colon and with NCI/ADR-RES ovarian was above 100 µM throughout. In addition, the TGI in the assay with OVCAR-4 ovarian, in the assay with OVCAR-8 ovarian and in the assay with PC-3 prostate was above 100 µM in each case.

In the case of `Cc1ccsc1C(=S)Nc1ccc(Cl)c(C(=O)OC(C(C)C)C(C)C)c1`, the TGI in the assay on A498 renal, with DU-145 prostate, with HCT-15 colon, with K-562 leukemia, in the assay on KM12 colon and with NCI/ADR-RES ovarian was above 100 µM throughout. Besides, the TGI in the assay with OVCAR-4 ovarian is above 100 µM; in the assay with OVCAR-8 ovarian, above 100 µM; in the assay on PC-3 prostate, 61.8 µM.

On to `FC(F)=C(c1ccc(-c2ccc(Cl)cc2)cc1)C(F)(F)F`, for which the TGI in the assay on A498 renal was 31.9 µM; with DU-145 prostate, 34.6 µM; in the assay with HCT-15 colon it was 42.2 µM; in the assay with K-562 leukemia it was 71.9 µM; with KM12 colon it was 36.7 µM; in the assay with NCI/ADR-RES ovarian, 63.8 µM. Besides, the results for the TGI in the assay with OVCAR-4 ovarian, in the assay on OVCAR-8 ovarian and with PC-3 prostate were 33.5 µM, 57.9 µM and 32.5 µM, respectively.

Turning to `COc1ccc(CCCCl)c(C2=NCCc3ccccc32)c1`, the TGI in the assay with A498 renal, with DU-145 prostate, with HCT-15 colon, in the assay with K-562 leukemia, in the assay on KM12 colon and with NCI/ADR-RES ovarian was above 100 µM in each case. For the same compound, the TGI in the assay on OVCAR-4 ovarian, with OVCAR-8 ovarian and with PC-3 prostate was above 100 µM throughout.

Consider `NNC(=O)c1cccc2c1Oc1ccccc1S2`, for which the TGI in the assay with A498 renal, in the assay on DU-145 prostate, in the assay with HCT-15 colon, with K-562 leukemia, in the assay with KM12 colon and with NCI/ADR-RES ovarian was above 100 µM throughout. In addition, the TGI in the assay on OVCAR-4 ovarian, in the assay with OVCAR-8 ovarian and in the assay with PC-3 prostate was above 100 µM throughout.
